This is an account of results in US4469680A, “Iodinated vasopressin antagonists” (SmithKline Beckman Corporation, priority 1983, dated 1984).

Starred links: 1 amine or outer side, 2 acyl side, 3 side chain; linkers in the order of their positions; H or OH if unused. Positions of bridges follow the written chain, without caps; N, C: chain ends. Non-standard residues stand in square brackets, D forms with d. Residues, ends and D or L forms follow the SMILES beside them. dTyr(3,5-I2) = N[C@H](Cc1cc(I)c(O)c(I)c1)C(=O)O; dTyr(3-I) = N[C@H](Cc1ccc(O)c(I)c1)C(=O)O; X1 = O=C(CC1(S[*:2])CCCCC1)[*:1]

This assay addresses vasopressin receptors (V2 -receptors) (Sus scrofa, UniProt P32307). As to the kind of experiment: biochemical. The text has this:
These values represent total and non-specific binding, respectively.

Sequence of vasopressin receptors (V2 -receptors) (P32307 whole entry): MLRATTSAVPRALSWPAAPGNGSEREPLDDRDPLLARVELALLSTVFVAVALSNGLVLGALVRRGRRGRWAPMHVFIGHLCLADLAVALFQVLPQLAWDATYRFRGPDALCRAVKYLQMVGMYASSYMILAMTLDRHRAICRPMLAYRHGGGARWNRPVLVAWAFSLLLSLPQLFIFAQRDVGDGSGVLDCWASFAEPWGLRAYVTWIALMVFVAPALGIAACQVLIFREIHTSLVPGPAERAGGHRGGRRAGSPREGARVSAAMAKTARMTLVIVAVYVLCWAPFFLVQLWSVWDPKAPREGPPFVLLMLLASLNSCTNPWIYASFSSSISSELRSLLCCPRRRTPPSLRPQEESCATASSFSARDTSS

With `CC(C)[C@@H]1NC(=O)[C@H](Cc2ccccc2)NC(=O)[C@@H](Cc2ccc(O)cc2)NC(=O)CC2(CCCCC2)SSC[C@@H](C(=O)N2CCC[C@H]2C(=O)N[C@@H](CCCN=C(N)N)C(=O)NCC(N)=O)NC(=O)[C@H](CC(N)=O)NC1=O` [A, [Pmp^1, D-Tyr^2, Val^4]AVP, reference compound] ([dY]FVNCPRG-NH2; linker N-5 via X1), the Kb was 0.1 µM.
The molecule `CC(C)[C@@H]1NC(=O)[C@H](Cc2ccccc2)NC(=O)[C@@H](Cc2ccc(O)c(I)c2)NC(=O)CC2(CCCCC2)SSC[C@@H](C(=O)N2CCC[C@H]2C(=O)N[C@@H](CCCNC(=N)N)C(=O)NCC(N)=O)NC(=O)[C@H](CC(N)=O)NC1=O` [B, [Pmp^1, D-Tyr(I)^2, Val^4]AVP] ([dTyr(3-I)]FVNCPRG-NH2; linker N-5 via X1) returned a Kb of 0.12 µM.
As for `CC(C)[C@@H]1NC(=O)[C@H](Cc2ccccc2)NC(=O)[C@@H](Cc2cc(I)c(O)c(I)c2)NC(=O)CC2(CCCCC2)SSC[C@@H](C(=O)N2CCC[C@H]2C(=O)N[C@@H](CCCNC(=N)N)C(=O)NCC(N)=O)NC(=O)[C@H](CC(N)=O)NC1=O` [C, [Pmp^1, D-Tyr(I2)^2, Val^4]AVP] ([dTyr(3,5-I2)]FVNCPRG-NH2; linker N-5 via X1), the figure is 2.4 µM.
